Columns and labels:
TAC rats [1] = assay: TAC-induced cardiac hypertrophy and cardiomyocyte dilation in rats; type: in vivo, Wistar rats; conditions: for cardiac and myocyte hypertrophy: 3-week TAC groups; for increment of cardiomyocyte cross-sectional area: 3-week TAC; for HW / HW/BW: 3 wk TAC
Method: TAC between the innominate artery and the left carotid artery was conducted to induce pressure overload for 3 weeks (3-week TAC) or 9 weeks (9-week TAC). Sham control animals underwent the same operation, but without aortic constriction. All surgical procedures were performed with animals anesthetized with 3% pentobarbital sodium injected intraperitoneally (i.p. 40 mg/kg). During the surgery period, rats were intubated and ventilated with a rodent ventilator (Harvard Apparatus, Holliston, Mass., USA).
Both 3-week and 9-week TAC-exposed rats were randomly divided into five groups (n=8-10 rats) including a TAC vehicle control, COMPOUND A, low (TAC+COMPOUND A (L), 1 mg/kg/d), middle (TAC+COMPOUND A (M), 2 mg/kg/d), high (TAC+COMPOUND A (H), 8 mg/kg/d) dose group respectively, and sildenafil (TAC+Sil, 70 mg/kg/d) as a positive control group. Sham controls were all treated with vehicle. Acute and chronic mortality from the TAC procedure was <5%. The treat group was intra-gastric administrated with sodium salt of compound A which was solved in a mixture of saline and organic solvent of the same volume (1:1, 0.5 ml) and sildenafil which was solved in distilled water. All drugs and vehicle treatment were given twice a day after surgery for three days as designed. The animals were examined at 3 weeks and 9 weeks after surgery accordingly. At the end of the observation periods and after hemodynamic measurement in vivo, all animals were sacrificed and hearts were explanted for further Analyses.
Tissue sections of rat hearts were fixed in 10% neutral-buffered formalin, embedded in paraffin, cut into […] serial sections, and then stained with haematoxylin and eosin (H&E), picrosirius red or phalloidin. Nikon system and Zeiss confocal microscope were used to capture digital images. Stained with H&E was to evaluate cell size, stained with picrosirius red (sigma CA) was to test fibrosis using standard procedure and the amount of F-actin was stained with phalloidin. We determined cross sectional cell area and interstitial collagen fraction using computer-assisted image analysis (Image-Pro Plus software), with the observer blinded as to tissue source. At least four or five different hearts were quantified for analysis.
Adult Wistar rats were subjected to TAC for 3 weeks and treated with vehicle, COMPOUND A or sildenafil, respectively. […] The cardiac and myocyte hypertrophy were ameliorated by compound A or sildenafil in the 3-week TAC groups (Table 1).

TAC rats [2] = assay: Heart rate variability spectral analysis in TAC rats; type: in vivo; conditions: TAC for 9 weeks
Method: Three or nine weeks after TAC operation, rats were anesthetized with pentobarbital sodium (i.p. 40 mg/kg). The electrocardiogram (ECG) was measured using the II Einthoven lead. Three stainless steel 22G needle electrodes were localized in the insertion of the right (G1) and left (GND) front legs, and in the left (G2) rear leg. Accordingly, 10 min of ECG recordings were digitally acquired at 2 kHz prior to any maneuver. Heart rate variability-Spectral Analysis was performed using fast Fourier transformation. Oscillatory components were separated into very low frequency (VLF; <0.04 Hz), low frequency (LF; 0.04-0.6 Hz), or high frequency (HF; 0.6-2.5 Hz) bands. HRV components were expressed in normalized units (n.u.) as a percentage of total power minus the VLF component. Efferent vagal parasympathetic activity is a major contributor to the HF component and both sympathetic and vagal influences contribute to the LF component; thus the ratio of LF to HF is commonly utilized as a measure of sympathovagal balance. Parameters of the heart rate variability (HRV) are indicators for cardiac autonomic balance. […] This invention disclosed a novel used of compound A for restore cardiac autonomic balance by suppress elevated sympathetic activity, which sildenafil had no such effect.

[3] = test system: pulmonary hypertension rats; assay: Pressure overload (TAC)-induced pulmonary hypertension, lung histology; type: in vivo, wistar rats; design: Mean vascular wall thickness: unit not given here; conditions: for Mean vascular wall thickness: 9 weeks TAC
Method: Pressure overloaded-induced pulmonary hypertension was induced by transverse aortic constriction in male wistar rats (200±20 g body weight). Sham operated rats served as controls. […] After 9 weeks, animals were sacrificed and lungs were fixed, paraffin-embedded, sectioned, and stained with hematoxylin and eosin. Blinded stereological Analysis of mean wall thickness and vascular muscularization of lung arterial vessels was performed. Collagen I was verified by immune-fluorescent staining and visualized in confocal.

TAC-exposed rats = assay: ECG alterations induced by TAC; type: in vivo; conditions: for QT dispersion and QTc dispersion increase induced by TAC: TAC after 9 weeks; for QRS duration and R amplitude: TAC at 9 weeks
[4] = comp. A (L) 1 mg/kg/d intra-gastric

For `CCCc1nn(C)c2c(=O)[nH]c(-c3cc(S(=O)(=O)N4CCN(C)CC4)ccc3OCC)nc12` [sildenafil, reference compound], the “cardiac and myocyte hypertrophy” value (TAC rats [1]) was “ameliorated”, the “increment of cardiomyocyte cross-sectional area” value (from here on “increment”) (TAC rats [1]; 70 mg/kg) was 16.3% and the HW (TAC rats [1]; sildenafil 70 mg/kg/d) was 0.76 ± 0.04 g. The HW/BW (TAC rats [1]; sildenafil 70 mg/kg/d) was 2.86 ± 0.117 mg/g, the LF/HF ratio (TAC rats [2]) was “did not reduce” and the Fully muscularization ([3]; 70 mg/kg + TAC) was 23.80 ± 8.247 %. For the same molecule, the Non-muscularization ([3]; 70 mg/kg + TAC) was 57.57 ± 7.182 %, the Partially muscularization ([3]; 70 mg/kg + TAC) was 18.61 ± 15.09% and the “fluorescent intensity of collagen I” value ([3]; lung, 70 mg/kg + TAC) was 7.591. For the same molecule, the “Mean vascular wall thickness” value ([3]; pulmonary arterioles inner diameter <100 um, sildenafil) was 24.10 ± 7.48, the “Mean vascular wall thickness” value ([3]; pulmonary arterioles inner diameter >100 um, sildenafil) was 14.88 ± 6.83 and the “QT dispersion and QTc dispersion increase induced by TAC” value (TAC-exposed rats) was “did not show similar protective effect”. For the same molecule, the “QRS duration and R amplitude” value (TAC-exposed rats) was “trended normal”.

`C[C@@]12CC[C@@H]3[C@@](CC[C@H]4[C@@]3(C)CCC[C@@]4(C)C(=O)O)(CC1=O)C2` [Compound A, (4α,8β,13β)-13-methyl-16-oxo-17-norkauran-18-oic acid] was tested, and the “cardiac and myocyte hypertrophy” value (TAC rats [1]) was “ameliorated”, the “increment” value (TAC rats [1]; 1 mg/kg) was 15.1% and the “increment” value (TAC rats [1]; 2 mg/kg) was 4.1%. For the same molecule, the “increase of cardiomyocyte cross-sectional area comparing to Sham rats” value (TAC rats [1]; 3 weeks TAC rats, dose not stated (TAC alone 76%)) was 10%, the HW (TAC rats [1]; [4]) was 0.72 ± 0.03 g and the HW/BW (TAC rats [1]; [4]) was 2.862 ± 0.099 mg/g. For the same molecule, the LF/HF ratio (TAC rats [2]) was “reversed to normal”, the Fully muscularization ([3]; 1 mg/kg + TAC) was 10.20 ± 9.787 % and the Non-muscularization ([3]; 1 mg/kg + TAC) was 66.78 ± 5.876 %. For the same molecule, the Partially muscularization ([3]; 1 mg/kg + TAC) was 23.00 ± 3.938%, the Fully muscularization ([3]; 4 mg/kg + TAC) was 1.851 ± 3.207^#& % and the Non-muscularization ([3]; 4 mg/kg + TAC) was 81.10 ± 16.60 %. The Partially muscularization ([3]; 4 mg/kg + TAC) was 17.04 ± 18.98%, the “number of non-muscularization vessels” value ([3]; lung, TAC rats) was “increased” and the “production of collagen I” value ([3]; lung, TAC rats) was “reduced”. The “vascular remodeling in small and medium arteries” value ([3]; lung, TAC rats) was “prevented”, the “fluorescent intensity of collagen I” value ([3]; lung, 1 mg/kg + TAC) was 10.75 and the “Mean vascular wall thickness” value ([3]; pulmonary arterioles inner diameter <100 um, 1 mg/kg) was 22.96 ± 7.83. The “Mean vascular wall thickness” value ([3]; pulmonary arterioles inner diameter <100 um, 4 mg/kg) was 17.60 ± 6.28^##&&, the “Mean vascular wall thickness” value ([3]; pulmonary arterioles inner diameter >100 um, 1 mg/kg) was 16.60 ± 6.00 and the “Mean vascular wall thickness” value ([3]; pulmonary arterioles inner diameter >100 um, 4 mg/kg) was 10.67 ± 5.01. For the same molecule, the “QT dispersion and QTc dispersion increase induced by TAC” value (TAC-exposed rats) was “reversed such effects” and the “QRS duration and R amplitude” value (TAC-exposed rats) was “trended normal”.
